From US20230167088A1, “1-PYRAZINYLPYRAZOLYL-3-OXYALKYL ACIDS AND THEIR DERIVATIVES, AND THEIR USE FOR CONTROL OF UNDESIRED PLANT GROWTH” (BAYER AKTIENGESELLSCHAFT, priority 2020, published 2023)

Experiments:
PHBPU = test: Herbicidal post-emergence action 1a (greenhouse pots, visual rating); format: in vivo, Pharbitis purpurea; details: visual rating about 3 weeks after treatment
Procedure, shortened: (§1)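 Weeds and crops sown in sandy loam in greenhouse pots were sprayed post-emergence at the one-leaf stage (2–3 weeks after sowing) with WP or EC formulations plus 0.5% additive at 600 l/ha water, 320 and/or 80 g/ha. About 3 weeks later damage was rated visually against untreated controls (0% = no effect, 100% = dead).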

AVEFA = test: Herbicidal pre-emergence action 2a (greenhouse pots, visual scoring); format: in vivo, Avena fatua; details: dosage 320 g/ha, visual scoring after about 3 weeks
Procedure, shortened: (§2)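 Pre-emergence soil-surface spray: WP/EC, 0.5% additive, 600 l/ha water, 320 and/or 80 g/ha. Greenhouse ~3 wk. Visual % damage vs untreated (100% = plants dead, 0% = like control).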

STEME = test: Herbicidal post-emergence action 1b (twin sowing, 1280 g/ha); format: in vivo, Stellaria media; details: dosage 1280 g/ha, visual rating about 3 weeks after treatment
Procedure, shortened: (§3)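 Twin-sown weeds in sandy loam, greenhouse-grown 2–3 weeks, sprayed post-emergence at one-leaf stage with WP/EC formulations plus 0.5% additive at 600 L/ha water. Damage rated visually about 3 weeks later versus untreated controls (100% = plants dead, 0% = like control).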

AMARE [1] = test: Herbicidal pre-emergence action 2a (greenhouse pots, visual scoring); format: in vivo, Amaranthus retroflexus; details: dosage 320 g/ha, visual scoring after about 3 weeks vs untreated controls
Procedure, shortened: as §2

MATIN [2] = test: Herbicidal post-emergence action 1a (greenhouse pots, visual rating); format: in vivo, Matricaria inodora; details: visual rating about 3 weeks after treatment
Procedure, shortened: as §1

ALOMY [3] = test: Herbicidal pre-emergence action 2a (greenhouse pots, visual scoring); format: in vivo, Alopecurus myosuroides; details: dosage 320 g/ha, visual scoring after about 3 weeks
Procedure, shortened: as §2

AMARE [4] = test: Herbicidal pre-emergence action 2b (doubly sown, 1280 g/ha); format: in vivo, Amaranthus retroflexus; details: doubly sown pots, dosage 1280 g/ha, visual scoring after about 3 weeks
Procedure, shortened: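 Pots of sandy loam doubly sown with one monocot and one dicot weed species, covered, then soil surface sprayed pre-emergence with WP or EC formulations plus 0.5% additive at 600 l/ha water. Greenhouse-grown about 3 weeks; activity scored visually as % versus untreated controls (100% = dead).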

VIOTR = test: Herbicidal post-emergence action 1a (greenhouse pots, visual rating); format: in vivo, Viola tricolor; details: visual rating about 3 weeks after treatment
Procedure, shortened: as §1

MATIN [5] = test: Herbicidal post-emergence action 1b (twin sowing, 1280 g/ha); format: in vivo, Matricaria inodora; details: dosage 1280 g/ha, visual rating about 3 weeks after treatment
Procedure, shortened: as §3

POAAN = test: as above; format: in vivo, Poa annua; details: dosage 1280 g/ha, visual rating about 3 weeks after treatment
Procedure, shortened: as §3

ALOMY [6] = test: Herbicidal post-emergence action 1a (greenhouse pots, visual rating); format: in vivo, Alopecurus myosuroides; details: rated visually about 3 weeks after treatment, 100% = plants have died, 0% = like control plants
Procedure, shortened: as §1

Row | Structure (SMILES) | Post-emergence action against PHBPU in % (PHBPU; dosage 80 g/ha) [%] | Post-emergence action against PHBPU in % (PHBPU; dosage 320 g/ha) [%] | Pre-emergence action against AVEFA in % (AVEFA) [%] | Post-emergence action at 1280 g/ha against STEME in % (STEME) [%] | Pre-emergence action against AMARE in % (AMARE [1]) [%] | Post-emergence action against MATIN in % (MATIN [2]; dosage 320 g/ha) [%] | Pre-emergence action against ALOMY in % (ALOMY [3]) [%] | Pre-emergence action at 1280 g/ha against AMARE in % (AMARE [4]) [%] | Post-emergence action against VIOTR in % (VIOTR; dosage 80 g/ha) [%] | Post-emergence action against VIOTR in % (VIOTR; dosage 320 g/ha) [%] | Post-emergence action at 1280 g/ha against MATIN in % (MATIN [5]) [%] | Post-emergence action at 1280 g/ha against POAAN in % (POAAN) [%] | Post-emergence action against ALOMY in % (ALOMY [6]; Dosage 80 g/ha) [%] | Post-emergence action against ALOMY in % (ALOMY [6]; Dosage 320 g/ha) [%] | Post-emergence action against MATIN in % (MATIN [2]; dosage 80 g/ha) [%]
1 | COC(=O)C(C)Oc1nn(-c2cnccn2)c(-c2ccc(F)c(F)c2)c1C#N (racemic) [Example I-22] | 80 | 90 | 90 | 100 | 90 | 80 | 100 | 100 | 80 | 90 | 90 | 100 | 90 | 100 | –
2 | COC(=O)[C@@H](C)Oc1nn(-c2cnccn2)c(-c2ccc(F)nc2)c1Cl [Example I-36] | 90 | 90 | 100 | 100 | 100 | 80 | 100 | 100 | 90 | 90 | 90 | 100 | – | 100 | –
3 | COC(=O)[C@@H](C)Oc1nn(-c2cnccn2)c(-c2ccc(F)c(F)c2)c1C#N [Example I-46] | – | – | 90 | 90 | 100 | 80 | 100 | 100 | – | – | 90 | 100 | 90 | 90 | –
4 | COC(=O)[C@@H](C)Oc1nn(-c2cnccn2)c(-c2ccnc(F)c2)c1Br [Example I-34] | – | 80 | 90 | 100 | 90 | 90 | 100 | 100 | 90 | 90 | 90 | 100 | 80 | 100 | –
5 | COC(=O)C(C)Oc1nn(-c2cnccn2)c(-c2ccc(F)c(F)c2)c1Br (racemic) [Example I-16] | – | 90 | 90 | 100 | 100 | 80 | 90 | 100 | 80 | 90 | 90 | 100 | 90 | 100 | –
6 | COC(=O)C(C)Oc1nn(-c2cnccn2)c(-c2ccc(F)nc2)c1Br (racemic) [Example I-12] | 80 | 90 | 90 | 100 | 100 | 80 | 100 | 100 | 90 | 100 | 90 | 100 | 90 | 90 | –
7 | COC(=O)[C@@H](C)Oc1nn(-c2cnccn2)c(-c2cncc(F)c2)c1Br [Example I-39] | 80 | 90 | 90 | 100 | 100 | 90 | 100 | 100 | 80 | 90 | 90 | 100 | 90 | 100 | 80
8 | C[C@H](Oc1nn(-c2cnccn2)c(-c2cncc(F)c2)c1Br)C(=O)O [Example I-37] | – | 80 | 90 | 100 | 90 | 80 | 100 | 100 | 80 | 90 | 90 | 100 | 90 | 100 | –
9 | CCOC(=O)COc1nn(-c2cnccn2)c(-c2ccc(F)nc2)c1Cl [Example I-53] | 80 | – | 90 | 100 | 100 | – | 100 | 100 | 90 | – | 100 | 100 | – | – | 80
